The values below come from ChEMBL document CHEMBL1275579, “Plasmid-mediated 16S rRNA methylases in aminoglycoside-resistant Enterobacteriaceae isolates in Shanghai, China” (2009).

A word on the MIC50: it is the lowest concentration that inhibits either 50% of growth or 50% of the strains tested, depending on the study. As usually defined, the MIC90 is an inhibitory concentration at the 90% level, which refers to growth in some studies and to a panel of isolates in others. Lower therefore signals greater potency. For orientation: MIC means the least concentration at which growth counts as inhibited. Lower therefore signals greater potency.

For experiment [1], the system named is Enterobacteriaceae. Put plainly: Antibacterial activity against 16S rRNA methylase and beta-lactamase producing Enterobacteriaceae by CLSI method. It is filed as functional.
The subject of experiment [2] is Enterobacter cloacae. Kind of experiment: Antibacterial activity against armA-positive Enterobacter cloacae expressing KPC-2 beta-lactamase by CLSI method. In kind it is functional.

In experiment [1], `NCC[C@H](O)C(=O)N[C@@H]1C[C@H](N)[C@@H](O[C@H]2O[C@H](CN)[C@@H](O)[C@H](O)[C@H]2O)[C@H](O)[C@H]1O[C@H]1O[C@H](CO)[C@@H](O)[C@H](N)[C@H]1O` [AMIKACIN] displayed an MIC50 of more than 256 mg/L and an MIC90 of more than 256 mg/L. As for GENTAMICIN, in experiment [1], the MIC50 was more than 256 mg/L and the MIC90 was more than 256 mg/L. The compound `C[C@@H](O)[C@H]1C(=O)N2C(C(=O)O)=C(SCCNC=N)C[C@H]12` [IMIPENEM ANHYDROUS] showed an MIC in experiment [2] of more than 32 mg/L.
